Results on three molecules are retold here after ChEMBL document CHEMBL1138998, “A topological function based on spectral moments for predicting affinity toward A3 adenosine receptors” (Bioorg Med Chem Lett, 2006).

The test deals with T1, Adenosine receptor A3 (Rattus norvegicus, UniProt P28647).
T1 sequence (P28647 whole entry): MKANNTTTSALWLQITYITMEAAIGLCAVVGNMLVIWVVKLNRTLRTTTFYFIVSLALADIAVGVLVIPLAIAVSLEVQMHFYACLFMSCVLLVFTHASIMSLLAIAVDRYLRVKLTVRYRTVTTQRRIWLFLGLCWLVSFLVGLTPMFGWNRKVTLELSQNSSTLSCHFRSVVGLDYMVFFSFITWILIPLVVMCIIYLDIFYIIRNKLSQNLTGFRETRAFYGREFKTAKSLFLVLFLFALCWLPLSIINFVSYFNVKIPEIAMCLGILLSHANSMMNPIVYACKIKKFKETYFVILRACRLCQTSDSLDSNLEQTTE
In words: Displacement of [125I]AB-MECA from rat adenosine A3 receptor expressed in CHO cells. The test is classed as cell-based. A general note: Loss of bound radioactivity is the signal in a displacement assay; it reports binding, not function.

As a reminder, the Ki is a measure of affinity in units of concentration, obtained from inhibition or displacement. High values mean weaker binding, low ones tighter binding. `CCNC(=O)[C@H]1O[C@@H](n2cnc3c(NC(=O)Nc4ccc(S(=O)(=O)Nc5ncccn5)cc4)ncnc32)[C@H](O)[C@@H]1O` yielded a Ki of 405 nM.

In the case of `CCNC(=O)[C@H]1O[C@@H](n2cnc3c(NC(=O)Nc4ccc(S(=O)(=O)Nc5ccccn5)cc4)ncnc32)[C@H](O)[C@@H]1O`, the inhibitory constant (Ki) came out at 54.1 nM.

In the case of `CCNC(=O)[C@H]1O[C@@H](n2cnc3c(NC(=O)Nc4ccc(S(=O)(=O)Nc5cc(C)on5)cc4)ncnc32)[C@H](O)[C@@H]1O`, the Ki came to 155 nM.
